Tests used:
[1] = tested on: endogenous "FADPase" in the apoglucose oxidase; assay: Effect of p-nitrophenyl phosphate on background color generation in the absence of nuclease P1; assay type: biochemical; settings: p-nitrophenyl phosphate at concentrations up to approximately 5 mM; no nuclease P1; FIG. 3
Description: (§1) The effect of the added p-nitrophenyl phosphate on the background color generation in the absence of nuclease P1 was also noted. This background is due to endogenous “FADPase” in the apoglucose oxidase used in the assay. At concentrations up to approximately 5 mM, added p-nitrophenyl phosphate has no effect on nuclease P1, but reduces the background signal by 80-100% (FIG. 3).

[2] = molecular target: T1, nuclease P1 (Penicillium citrinum, UniProt P24289); assay: Effect of p-nitrophenyl phosphate on the activity of nuclease P1; assay type: biochemical; parameters: purchased Sigma Chemical Company; settings: p-nitrophenyl phosphate at concentrations up to approximately 5 mM; FIG. 3
T1 sequence (P24289 1-270): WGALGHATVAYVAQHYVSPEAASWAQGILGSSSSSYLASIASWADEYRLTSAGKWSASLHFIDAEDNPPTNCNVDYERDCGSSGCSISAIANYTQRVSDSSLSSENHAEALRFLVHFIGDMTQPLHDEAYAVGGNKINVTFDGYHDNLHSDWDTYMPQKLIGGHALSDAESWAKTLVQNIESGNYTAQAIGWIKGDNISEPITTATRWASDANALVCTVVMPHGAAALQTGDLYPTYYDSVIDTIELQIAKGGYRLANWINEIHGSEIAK
Description: as §1

[3] = molecular target: T1, nuclease P1; settings: phosphate 0 to 10 mM; nuclease P1 at pH 6.5, alkaline phosphatase at pH 8.9; FIG. 2
Description: A solution of nuclease P1 standardized according to Example 1 was serially diluted in 50 mM citrate buffer adjusted to pH 6.5 with NaOH. The assay mixture contained 20 μM 3′FADP, 0.1 mM 4-aminoantipyrine, 2 mM DHSA, 1 μg horseradish peroxidase, 0.1 M glucose and 0.1 μM apoglucose oxidase in a total volume of 0.1 ml. The change in absorbance was monitored at 520 nm in a Dynatech MR7000 plate reader fitted with a thermostatically controlled plate holder set to 25° C.

[4] = Standardization of nuclease P1 (coupled NADH assay, absorbance at 340 nm); assay type: biochemical; settings: 22.7 μM solution (1 mg in 1 ml water); 50 mM HEPES pH 7.2; molar extinction coefficient of 6220 for NADH assumed
Description: Nuclease P1 (1 mg; obtained from Sigma Chemical Company, batch no: 107F0799) was dissolved in 1 ml of water to give a concentration of 22.7 μM and stored at 4° C. The activity of this solution was assayed in the following mixture: 0.16 mM NADH, 1 mM ATP, 1 mM PEP, 1 mM MgSO4, 20 mM KCl, 0.5 mM adenosine 3′,5′-bisphosphate, 1 U pyruvate kinase, 1 U lactate dehydrogenase and 1 U myokinase in 50 mM HEPES buffer, pH 7.2, in a total volume of 1 ml.

O=[N+]([O-])c1ccc(OP(=O)(O)O)cc1 [p-nitrophenyl phosphate]
reduction of background signal [1]: 80-100%
effect on nuclease P1 activity [2]: no effect

phosphate
effect of phosphate on enzyme activity [3]: less of an effect on nuclease P1 than on alkaline phosphatase

B1: Nuclease P1: enzyme obtained from Sigma Chemical Company, used as enzyme label (protein, UniProt P24289 1-270, looked up)
Nuclease P1: WGALGHATVAYVAQHYVSPEAASWAQGILGSSSSSYLASIASWADEYRLTSAGKWSASLHFIDAEDNPPTNCNVDYERDCGSSGCSISAIANYTQRVSDSSLSSENHAEALRFLVHFIGDMTQPLHDEAYAVGGNKINVTFDGYHDNLHSDWDTYMPQKLIGGHALSDAESWAKTLVQNIESGNYTAQAIGWIKGDNISEPITTATRWASDANALVCTVVMPHGAAALQTGDLYPTYYDSVIDTIELQIAKGGYRLANWINEIHGSEIAK
activity of nuclease P1 solution [4]: 320 U/ml
